US20250098679A1, “HERBICIDAL PYRIDONE DERIVATIVES” (SYNGENTA CROP PROTECTION AG, priority 2021, published 2025)

Tests used:
Assay type in all cases: in vivo
Setaria faberi (SETFA) [1] = test: Pre-emergence Test, Setaria faberi (SETFA); settings: 1000 g/ha, evaluated after 13 days
Zea mays (ZEAMX) [2] = test: Pre-emergence Test, Zea mays (ZEAMX); settings: evaluated after 13 days
[3] = test system: Ipomoea hederacea (IPOHE); test: Pre-emergence Test, Ipomoea hederacea (IPOHE); settings: evaluated after 13 days
[4] = test system: Amaranthus palmeri (AMAPA); test: Pre-emergence Test, Amaranthus palmeri (AMAPA); settings: evaluated after 13 days
[5] = test system: Amaranthus retoflexus (AMARE); test: Pre-emergence Test, Amaranthus retoflexus (AMARE); settings: evaluated after 13 days
Setaria faberi (SETFA) [6] = test: Post-emergence Test, Setaria faberi (SETFA); design: key to percentage damage caused to the plant, SETFA (five-point scale): 5=81-100%, 4=61-80%, 3=41-60%, 2=21-40%, 1=0-20% damage; settings: evaluated after 13 days
Outline: (§1)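 Scores are percentage plant damage on a 1–5 scale (1=0-20%, 2=21-40%, 3=41-60%, 4=61-80%, 5=81-100%), read 13 days after treatment. Pots received a spray at 1000 g/ha unless otherwise stated, formulated in acetone/water (50:50) containing 0.5% Tween 20.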

[7] = test system: Echinochloa crus-galli (ECHCG); test: Post-emergence Test, Echinochloa crus-galli (ECHCG); design: key to percentage damage caused to the plant, ECHCG (five-point scale): 5=81-100%, 4=61-80%, 3=41-60%, 2=21-40%, 1=0-20% damage; settings: evaluated after 13 days; for Post-emergence Test ECHCG, percentage damage caused to the plant (five-point scale): 250 g/Ha (*)
Outline: as §1

Zea mays (ZEAMX) [8] = test: Post-emergence Test, Zea mays (ZEAMX); design: key to percentage damage caused to the plant, ZEAMX (five-point scale): 5=81-100%, 4=61-80%, 3=41-60%, 2=21-40%, 1=0-20% damage; settings: evaluated after 13 days
Outline: as §1

[9] = test system: Ipomoea hederacea (IPOHE); test: Post-emergence Test, Ipomoea hederacea (IPOHE); design: key to percentage damage caused to the plant, IPOHE (five-point scale): 5=81-100%, 4=61-80%, 3=41-60%, 2=21-40%, 1=0-20% damage; settings: evaluated after 13 days
Outline: as §1

[10] = test system: Amaranthus palmeri (AMAPA); test: Post-emergence Test, Amaranthus palmeri (AMAPA); design: key: 5=81-100%, 4=61-80%, 3=41-60%, 2=21-40%, 1=0-20% damage; settings: evaluated after 13 days
Outline: as §1

[11] = test system: Amaranthus retoflexus (AMARE); test: Post-emergence Test, Amaranthus retoflexus (AMARE); design: key to percentage damage caused to the plant, AMARE (five-point scale): 5=81-100%, 4=61-80%, 3=41-60%, 2=21-40%, 1=0-20% damage; settings: evaluated after 13 days
Outline: as §1

[12] = test system: Echinochloa crus-galli (ECHCG); test: Pre-emergence Test, Echinochloa crus-galli (ECHCG); settings: evaluated after 13 days

SMILES | Pre-emergence Test SETFA, percentage damage caused to the plant (five-point scale) (Setaria faberi (SETFA) [1]) | Pre-emergence Test ZEAMX, percentage damage caused to the plant (five-point scale) (Zea mays (ZEAMX) [2]; 1000 g/ha) | Pre-emergence Test IPOHE, percentage damage caused to the plant (five-point scale) ([3]; 1000 g/ha) | Pre-emergence Test AMAPA, percentage damage caused to the plant (five-point scale) ([4]; 1000 g/ha) | Pre-emergence Test AMARE, percentage damage caused to the plant (five-point scale) ([5]; 1000 g/ha) | percentage damage caused to the plant, SETFA (five-point scale) (Setaria faberi (SETFA) [6]; 1000 g/ha) | percentage damage caused to the plant, ECHCG (five-point scale) ([7]; 1000 g/ha) | percentage damage caused to the plant, ZEAMX (five-point scale) (Zea mays (ZEAMX) [8]; 1000 g/ha) | percentage damage caused to the plant, IPOHE (five-point scale) ([9]; 1000 g/ha) | percentage damage caused to the plant, AMAPA (five-point scale) ([10]; 1000 g/ha) | percentage damage caused to the plant, AMARE (five-point scale) ([11]; 1000 g/ha) | Pre-emergence Test ECHCG, percentage damage caused to the plant (five-point scale) ([12]; 1000 g/ha) | Post-emergence Test SETFA, percentage damage caused to the plant (five-point scale) (Setaria faberi (SETFA) [6]; 1000 g/ha) | Post-emergence Test ECHCG, percentage damage caused to the plant (five-point scale) [7] | Post-emergence Test ZEAMX, percentage damage caused to the plant (five-point scale) (Zea mays (ZEAMX) [8]; 250 g/Ha (*)) | Post-emergence Test ZEAMX, percentage damage caused to the plant (five-point scale) (Zea mays (ZEAMX) [8]; 1000 g/ha) | Post-emergence Test IPOHE, percentage damage caused to the plant (five-point scale) ([9]; 250 g/Ha (*)) | Post-emergence Test IPOHE, percentage damage caused to the plant (five-point scale) ([9]; 1000 g/ha) | Post-emergence Test AMAPA, percentage damage caused to the plant (five-point scale) ([10]; 250 g/Ha (*)) | Post-emergence Test AMAPA, percentage damage caused to the plant (five-point scale) ([10]; 1000 g/ha) | also measured
CCOC(=O)c1c(-c2ccc(Cl)c(Cl)c2)n(CC)c(Cn2ncc3cnc(Cl)cc32)cc1=O [Compound 52, ethyl 6-[(6-chloropyrazolo[4,3-c]pyridin-1-yl)methyl]-2-(3,4-dichlorophenyl)-1-ethyl-4-oxo-pyridine-3-carboxylate] | 0 | 0 | 0 | 1 (1=0-20%) | 1 (1=0-20%) | 1 (1=0-20%) | 1 (1=0-20%) | 0 | 2 (2=21-40%) | 2 (2=21-40%) | 0 |  |  |  |  |  |  |  |  |  | 
CCn1c(Cn2cc(C(=O)OC)cn2)cc(=O)c(C(=O)OC(C)(C)C)c1-c1ccc(Cl)c(Cl)c1 [Compound 61, tert-butyl 2-(3,4-dichlorophenyl)-1-ethyl-6-[(4-methoxycarbonyl-pyrazol-1-yl)methyl]-4-oxo-pyridine-3-carboxylate] | 1 (1=0-20%) | 0 | 0 | 1 (1=0-20%) | 1 (1=0-20%) | 1 (1=0-20%) | 0 | 0 | 0 | 0 | 1 (1=0-20%) |  |  |  |  |  |  |  |  |  | 
CCn1c(Cn2ncc(Cl)c2C)cc(=O)c(C(=O)O)c1-c1ccc(Cl)c(Cl)c1 [Compound 88, 6-[(4-chloro-5-methyl-pyrazol-1-yl)methyl]-2-(3,4-dichlorophenyl)-1-ethyl-4-oxo-pyridine-3-carboxylic acid] | 2 (2=21-40%) | 1 (1=0-20%) | 2 (2=21-40%) |  |  | 4 (4=61-80%) | 2 (2=21-40%) | 3 (3=41-60%) | 2 (2=21-40%) | 2 (2=21-40%) | 1 (1=0-20%) | 3 (3=41-60%) |  |  |  |  |  |  |  |  | percentage damage caused to the plant, SETFA (five-point scale) (Setaria faberi (SETFA) [6]; 250 g/Ha): 0; percentage damage caused to the plant, ECHCG (five-point scale) ([7]; 250 g/Ha): 3 (3=41-60%); percentage damage caused to the plant, ZEAMX (five-point scale) (Zea mays (ZEAMX) [8]; 250 g/Ha): 0; percentage damage caused to the plant, IPOHE (five-point scale) ([9]; 250 g/Ha): 2 (2=21-40%); percentage damage caused to the plant, AMAPA (five-point scale) ([10]; 250 g/Ha): 1 (1=0-20%); percentage damage caused to the plant, AMARE (five-point scale) ([11]; 250 g/Ha): 1 (1=0-20%)
CCn1c(Cn2ccc(-c3nccs3)n2)cc(=O)c(C(=O)O)c1-c1ccc(Cl)c(Cl)c1 [Compound 201, 2-(3,4-dichlorophenyl)-1-ethyl-4-oxo-6-[(3-thiazol-2-ylpyrazol-1-yl)methyl]pyridine-3-carboxylic acid] |  | 0 | 1 (1=0-20%) | 0 | 0 |  |  |  |  |  |  | 0 | 2 (2=21-40%) | 1 (1=0-20%) | 0 | 1 (1=0-20%) | 0 | 2 (2=21-40%) | 0 | 1 (1=0-20%) | Post-emergence Test AMARE, percentage damage caused to the plant (five-point scale) ([11]; 250 g/Ha (*)): 0; Post-emergence Test AMARE, percentage damage caused to the plant (five-point scale) ([11]; 1000 g/ha): 2 (2=21-40%)
CCn1c(Cn2ccc(-c3cnccn3)n2)cc(=O)c(C(=O)O)c1-c1ccc(Cl)c(Cl)c1 [Compound 203, 2-(3,4-dichlorophenyl)-1-ethyl-4-oxo-6-[(3-pyrazin-2-ylpyrazol-1-yl)methyl]pyridine-3-carboxylic acid] |  | 1 (1=0-20%) | 0 | 1 (1=0-20%) | 1 (1=0-20%) |  |  |  |  |  |  | 2 (2=21-40%) | 1 (1=0-20%) | 1 (1=0-20%) | 1 (1=0-20%) | 1 (1=0-20%) | 2 (2=21-40%) | 1 (1=0-20%) | 1 (1=0-20%) | 0 | Post-emergence Test AMARE, percentage damage caused to the plant (five-point scale) ([11]; 250 g/Ha (*)): 1 (1=0-20%); Post-emergence Test AMARE, percentage damage caused to the plant (five-point scale) ([11]; 1000 g/ha): 0
CCn1c(Cn2ccc(/C=N/OC)n2)cc(=O)c(C(=O)O)c1-c1ccc(Cl)c(Cl)c1 [Compound 204, 2-(3,4-dichlorophenyl)-1-ethyl-6-[[3-[(E)-methoxyiminomethyl]pyrazol-1-yl]methyl]-4-oxo-pyridine-3-carboxylic acid] |  | 2 (2=21-40%) | 4 (4=61-80%) | 1 (1=0-20%) | 1 (1=0-20%) |  |  |  |  |  |  | 4 (4=61-80%) | 4 (4=61-80%) | 3 (3=41-60%) | 2 (2=21-40%) | 3 (3=41-60%) | 2 (2=21-40%) | 3 (3=41-60%) | 1 (1=0-20%) | 1 (1=0-20%) | Pre-emergence Test ECHCG, percentage damage caused to the plant (five-point scale) ([12]; 250 g/Ha (*)): 2 (2=21-40%); Pre-emergence Test ZEAMX, percentage damage caused to the plant (five-point scale) (Zea mays (ZEAMX) [2]; 250 g/Ha (*)): 1 (1=0-20%); Pre-emergence Test IPOHE, percentage damage caused to the plant (five-point scale) ([3]; 250 g/Ha (*)): 2 (2=21-40%); Pre-emergence Test AMAPA, percentage damage caused to the plant (five-point scale) ([4]; 250 g/Ha (*)): 1 (1=0-20%); Pre-emergence Test AMARE, percentage damage caused to the plant (five-point scale) ([5]; 250 g/Ha (*)): 0; Post-emergence Test AMARE, percentage damage caused to the plant (five-point scale) ([11]; 250 g/Ha (*)): 1 (1=0-20%); Post-emergence Test AMARE, percentage damage caused to the plant (five-point scale) ([11]; 1000 g/ha): 2 (2=21-40%)
